{"source": "patent US20110039333A1", "about": "“DEFINED CONDITIONS FOR HUMAN EMBRYONIC STEM CELL CULTURE AND PASSAGE” (UNIVERSITY OF SOUTHERN CALIFORNIA, priority 2009, published 2011)", "molecules": {"B1": {"name": "Wnt3a: canonical Wnt ligand protein, purified in the laboratory or purchased from Peprotech (protein, UniProt P56704 19-352, looked up)", "Protein Wnt-3a": "SYPIWWSLAVGPQYSSLGSQPILCASIPGLVPKQLRFCRNYVEIMPSVAEGIKIGIQECQHQFRGRRWNCTTVHDSLAIFGPVLDKATRESAFVHAIASAGVAFAVTRSCAEGTAAICGCSSRHQGSPGKGWKWGGCSEDIEFGGMVSREFADARENRPDARSAMNRHNNEAGRQAIASHMHLKCKCHGLSGSCEVKTCWWSQPDFRAIGDFLKDKYDSASEMVVEKHRESRGWVETLRPRYTYFKVPTERDLVYYEASPNFCEPNPETGSFGTRDRTCNVSSHGIDGCDLLCCGRGHNARAERRREKCRCVFHWCCYVSCQECTRVYDVHTCK"}}, "assay_type_in_all_cases": "cell-based, human", "key": {"hESC [1]": {"system": "hESC", "test": "Xeno-free, feeder-free hESC culture (minimal medium development)", "conditions": "for maintenance of hESCs, Wnt ligand replaced by GSK-3 inhibitor: ID-8 containing medium", "experimental": "(§1) For xeno-free, feeder-free culture, the cells were passaged into 2 μg/cm^2 human Fibronectin (Sigma), 10-20 μg/cm^2 human Laminin (Sigma) and 10 μg/cm^2 human Vitronectin (Invitrogen)-coated culture dishes and cultured in DMEM/F-12 supplement with L-glutamine, a non-essential amino acid, ITS, 20-25 ng/ml Wnt3a and 500 nM ID-8, and with or without 4 ng/ml FGF2. The culture medium was changed daily. Some of colonies became detached from the edge region 5 to 7 days after culturing, and then cells were treated with 0.5 mg/ml GRGDTP peptides (AnaSpec) or 1 μg/ml Echistatin (Sigma) and incubated at 37° C. for 15-45 minutes until almost all of the colony starts to detach from the edge region. The colonies were detached and partially dissociated into clumps by gentle pipetting, and then the clumps were washed with culture medium, collected by centrifugation and seeded on new dishes as 1 to 2 split ratio.\nThe development of a xeno-free, feeder-free hESC culture system using ID-8 and Wnt activation was investigated. After extensive investigation, the inventors determined that the minimal media required to maintain hESC proliferation and pluripotency consisted of DMEM/F-12 with bFGF (4 ng/ml), Wnt3a (25 ng/ml), ID-8 (0.5 μM) and Insulin-Transferrin-Selenium (ITS). […] The inventors next sought to replace the Wnt ligand with several small molecule GSK-3 inhibitors, BIO (11), CHIR99021 (22) and Kenpaullone (23) in ID-8 containing medium with or without bFGF. […] However, in contrast to Wnt ligand containing medium, hESCs became unstable after few passages, subsequently stabilized and maintained pluripotent cores were surrounded with spontaneously differentiated cells (FIG. 5). Under these conditions, manually selection of undifferentiated hESC colonies from the surrounding cells was required at every passage to maintain pluripotent cultures.\n(§2) Initially, cells were maintained on Matrigel, a complex animal derived ECM. However, it would be advantageous to use a defined xeno-component-free ECM. […] Because of the extremely low level of protein in these cultures (i.e. no albumin and matrigel), the hESCs are extremely sensitive to damage caused by the dissociation enzymes normally used for passaging. […] To develop a compatible passaging process, the inventors investigated several integrin antagonists."}, "HES2 cells": {"system": "HES2 cells", "test": "Clonal proliferation assay, HES2 cells in MEF-CM", "conditions": "for effect on hESC survival, self-renewal and differentiation: supplement in MEF-CM, colony morphology", "experimental": "The clonal proliferation assay was described previously. Briefly, the hES cells in feeder-free culture were dissociated completely with 0.05% trypsin-EDTA.(Invitrogen), and are seeded at 10^4 cells/well in Matrigel-coated 6-well culture plates and cultured in MEF-conditioned medium. Various concentration of Wnt3a (purified in our laboratory or purchased from Peprotech), IQ-1, ID-8 and/or ICG-001 (all three chemicals were synthesized in our laboratory), were supplemented into the culture media at the onset of seeding, then continuously until the end of culturing. For all assays, the cell and colony morphology were examined under microscope, and the replating efficiency was examined by counting the number of colonies after 7 days of culture.\nFor quantitative PCR analysis, total RNA was isolated from hESCs cultured in feeder-free condition with or without Wnt3a and Id-8 using RNeasy micro kit (Qiagen). RT was performed with Omniscript (Qiagen) and quantitative RT-PCR was then performed, using each gene-specific primer/probe mix (TaqMan Gene Expression Assays), TaqMan 2× Master Mix, and ABI PRISM 7900 Sequence Detection system (Applied Biosystems, CA) according manufacture's protocol. The PCR data was analyzed by delta/delta OT method and normalized with PPIA expression.\nThe hESC colonies were fixed with 4% paraformaldehyde, and alkaline phosphatase (ALP) activity was determined with a Vector Blue Alkaline Phosphatase Substrate Kit (Vector Laboratories, CA). Immunostaining was carried out with the following primary antibodies: TRA-1-60 and TRA-1-80 (Santa Cruz Biotechnology, CA), anti-stage specific embryonic antigen (SSEA)-3 and -4 (Developmental Studies Hybridoma Bank at the University of Iowa), anti-OCT-3 (clone C-10, Santa Cruz Biotechnology, CA), or goat anti-Nanog (R&D systems, MN). Then, samples were incubated with Alexa Fluor 488- or 594-conjugated (Molecular Probes, NY), then detected with indirect immunofluorscence microscopy.\nThe effects of canonical Wnt ligand, Wnt3a and several small molecule Wnt signaling modulators in a clonal proliferation assay were investigated first (9) (FIG. 3A). When HES2 cells (2) were dissociated into single cells and seeded on Matrigel-coated plates in mouse embryonic fibroblast-conditioned medium (MEF-CM)(20), the colony forming efficiency was ˜0.6% (replating efficiency: colony number/seeded cell number). Supplementation with Wnt3a enhanced colony formation (˜1% at 100 ng/ml). The colonies were larger and consisted of more cells. […] ID-8, which was identified in the same screen as IQ-1 (21), also enhances the β-catenin/CBP association and increased hESC survival (˜1.1% at 0.5 μM). […] To examine the scope of this effect in hESC, clonal proliferation assays were performed with the additional hESC lines, HES3 (2) and H9 (1) (FIG. 3H)."}, "hESC [2]": {"system": "hESC", "test": "Passaging by integrin antagonists (colony detachment)", "conditions": "xeno-free medium, FLV-coated dishes", "experimental": "as §1, §2"}}, "data": [{"molecule": "Cc1c[nH]c(-c2cnc(NCCNc3ccc(C#N)cn3)nc2-c2ccc(Cl)cc2Cl)n1", "note": "[CHIR90021]", "values": [{"measurement": "maintenance of hESCs, Wnt ligand replaced by GSK-3 inhibitor", "setting": "hESC [1]; 0.2 μM plus bFGF", "result": "could maintain hESCs"}]}, {"molecule": "O=C1[C@H](Cc2ccc(O)cc2)N2C(=O)CCN(C(=O)NCc3ccccc3)[C@H]2CN1Cc1cccc2ccccc12", "note": "[ICG-001]", "values": [{"measurement": "effect on hESC survival, self-renewal and differentiation", "setting": "HES2 cells", "result": "strongly induced cell differentiation and death"}]}, {"molecule": "CC(=O)c1ccc(NN=C(C(N)=O)C2=NC(C)(C)Cc3ccccc32)cc1", "note": "[IQ-1]", "values": [{"measurement": "effect on Wnt-induced differentiation", "setting": "HES2 cells; in presence of Wnt3a, MEF-CM", "result": "somewhat prevented Wnt-induced differentiation"}, {"measurement": "effect on hESC survival, self-renewal and differentiation", "setting": "HES2 cells", "result": "did not significantly affect hESC self-renewal by itself"}]}, {"molecule": "O=C1Cc2c([nH]c3ccc(Br)cc23)-c2ccccc2N1", "note": "[Kenpaullone]", "values": [{"measurement": "maintenance of hESCs, Wnt ligand replaced by GSK-3 inhibitor", "setting": "hESC [1]; 0.5 μM plus bFGF", "result": "could maintain hESCs"}, {"measurement": "maintenance of hESCs, Wnt ligand replaced by GSK-3 inhibitor", "setting": "hESC [1]; 1.0 μM plus bFGF", "result": "could maintain hESCs"}, {"measurement": "maintenance of hESCs, Wnt ligand replaced by GSK-3 inhibitor", "setting": "hESC [1]; 1.0 μM without bFGF", "result": "could maintain hESCs"}]}, {"molecule": "Echistatin", "values": [{"measurement": "colony detachment and passage of hESC", "setting": "hESC [2]", "result": "effectively caused colony detachment"}]}, {"molecule": "bFGF: basic fibroblast growth factor, recombinant FGF2 (Peprotech)", "values": [{"measurement": "hESC morphology and proliferation", "setting": "hESC [1]; bFGF removed from minimal medium", "result": "proliferation was significantly diminished"}]}, {"molecule": "B1", "values": [{"measurement": "replating efficiency (colony number/seeded cell number)", "setting": "HES2 cells; Wnt3a at 100 ng/ml, single cells on Matrigel in MEF-CM, control ~0.6%", "result": "~1", "unit": "%"}, {"measurement": "effect on hESC survival, self-renewal and differentiation", "setting": "HES2 cells", "result": "enhances hESC survival and proliferation but also induces differentiation"}]}]}
